Assay results as given in publication PMC5927461, “Activation of host transient receptor potential (TRP) channels by praziquantel stereoisomers” (PLoS Neglected Tropical Diseases, 2018).
Each block holds one compound with its values, some of them ahead of it.

Tests used:
hTRPA1 [1] = target: T1, hTRPA1 (Homo sapiens, UniProt O75762); assay: Single cell confocal Ca2+ imaging (fluo-4) in transfected HEK293 cells; assay type: cell-based; set-up: host or cells: HEK293 (ATCC CRL-1573.3), transient; details: for Ca2+ response in hTRPA1 expressing cells: 100μM
Source text: (§1) Human TRPM8 cDNA was a VersaClone from R&D Systems (RDC0188). Plasmids encoding human TRPA1 and human TRPV1 cDNA were purchased from DNASU plasmid repository (HsCD00080227 and HsCD00081472, respectively). The TRP channel coding sequences were subcloned into pCS2+ to introduce a COOH-term myc tag using the InFusion HD method (Clontech), HindIII/XhoI restriction enzymes (NEB) and the following primers: TRPM8 F–TGGGGACGTCGGAGC-aagctt-[…]; TRPM8 R–AAATCGATGGGATGC-ctcgag-[…]; TRPA1 F-GGACGTCGGAGC-aagctt- atgaagcgcagcctgagg; TRPA1 R-TCGATGGGATGC-ctcgag-[…]; TRPV1 F–GGACGTCGGAGC-aagctt-[…]; TRPV1 R-TCGATGGGATGC-ctcgag-cttctccccggaagcgg (where upper case specifies vector-specific sequences, italics indicate restriction sites, and lower case indicates TRP channel specific sequences). Primers are listed in a 5’ to 3’ orientation.
(§2) HEK293 cells (ATCC CRL-1573.3) were cultured in DMEM supplemented with 10% fetal bovine serum (FBS), penicillin (100 units/ml), streptomycin (100 μg/ml), and L-glutamine (290 μg/ml). Cells were transiently transfected (Lipofectamine LTX, Thermo Fisher) at a density of 2x10^6 cells per T-25 cell-culture flask with TRP channel cDNA. For Ca^2+ imaging assays, HEK293 cells were seeded onto 8-chambered coverglass slides (Thermo Fisher, 115411PK), at a density of 1x10^4 cells one day prior to imaging. Cells were washed twice with HBSS, and incubated with fluo-4-AM (4μM), pluronic F127 (0.4%) and probenecid (2.5mM) for 25 minutes at room temperature. Cells were then washed twice with HBSS, and left at room temperature (30 minutes) for de-esterification. Dishes were mounted on an Olympus IX81 microscope and fluorescence changes (λex = 488nM, λem = 513±15nm bandpass filter) monitored using a Yogokawa spinning disk confocal (CSU-X-M1N) and an Andor iXon Ultra 888 EMCCD camera.

[2] = test system: mouse mesenteric arteries; assay: Wire myography, mesenteric artery strips precontracted with high K+ (KPSS); details: for relaxation of KPSS-contracted vessel strips by TRPM8 agonists: wild type, menthol 300μM, icilin 50 μM, WS-12 50μM
[3] = test system: mesenteric vessels isolated from a TRPM8 knockout mouse; assay: Wire myography, KPSS-contracted mesenteric vessels from TRPM8 knockout mice; details: TRPM8 KO; menthol 300μM, icilin 50μM, WS-12 50μM
[4] = test system: untransfected HEK293 cells; assay: Confocal Ca2+ imaging in untransfected HEK293 cells (control); assay type: cell-based, human; details: menthol 300μM, ±PZQ 100μM, ACh 100μM, capsaicin 1μM, AITC 100μM
Method: as §2

TRPV1 = TRPV1 (Homo sapiens, UniProt Q8NER1); assay: Single cell confocal Ca2+ imaging (fluo-4) in transfected HEK293 cells; assay type: cell-based; set-up: host or cells: HEK293 (ATCC CRL-1573.3), transient
Source text: as §1, §2

hTRPA1 [5] = target: T1, hTRPA1; assay: TRP channel panel primary screen (FLIPR Calcium 5, stable HEK line); assay type: cell-based; details: 0.3-300μM; effects over the micromolar range
Method: (§3) ±PZQ, (R)-PZQ and (S)-PZQ were screened against a panel of 17 human TRP channels (SB Drug Discovery, Glasgow). For all hTRPs, except for TRPM5, individual channel constructs were stably expressed in HEK cell lines. TRMP5 was expressed in a stable CHO cell line. In preparation for the assays, cells were trypsinized, counted and seeded (50,000 cells/well) in black, clear-bottomed 96 well plates and incubated overnight. The following day, cells were loaded with a fluorescent indicator (FLIPR Calcium 5 Assay kit for TRPA1, TRPV1, TRPV2, TRPV3, TRPV4, TRPV5, TRPC1, TRPM2, TRPM3 and TRPM8, or a membrane potential dye (FLIPR Membrane Potential Red Assay Kit for TRPC3, TRPC4, TRPC5, TRPC6, TRPC7, TRPM4 and TRPM5) prepared according to the manufacturer’s instructions in HEPES buffered Hank’s balanced salt solution (HBSS). Dye solution (10μl) was added to appropriate wells and incubated at 37°C for 1 hour. All assays were performed at room temperature. Compounds were tested at 0.3, 1, 3, 10, 30, 100μM and 300μM in triplicate in both agonist and antagonist mode to determine EC50 and IC50 values, which were compared with reference compounds. Compounds were screened at a final DMSO concentration of 0.5%. Plates were screened using a Flexstation (Molecular Devices, FX01138), monitoring fluorescence values every ~1.52 seconds. For ‘agonist mode’ testing, 10μl of the appropriate test compound, or standard agonist, was added after 20 seconds and fluorescence monitored for 2 minutes at λex = 485nm, λem = 525nm for Ca^2+ imaging and λex = 530nm, λem = 565nm for membrane potential measurements. For ‘antagonist mode’ testing, test compounds and standard inhibitors were added to appropriate wells and incubated for 10 minutes at room temperature prior to addition of standard agonist compound.

hTRPC3 = target: T2, hTRPC3 (Homo sapiens, UniProt Q13507); assay: TRP channel panel primary screen (membrane potential dye, stable HEK line); assay type: cell-based; details: 0.3-300μM; effects over the micromolar range
T2 sequence (Q13507 1-921): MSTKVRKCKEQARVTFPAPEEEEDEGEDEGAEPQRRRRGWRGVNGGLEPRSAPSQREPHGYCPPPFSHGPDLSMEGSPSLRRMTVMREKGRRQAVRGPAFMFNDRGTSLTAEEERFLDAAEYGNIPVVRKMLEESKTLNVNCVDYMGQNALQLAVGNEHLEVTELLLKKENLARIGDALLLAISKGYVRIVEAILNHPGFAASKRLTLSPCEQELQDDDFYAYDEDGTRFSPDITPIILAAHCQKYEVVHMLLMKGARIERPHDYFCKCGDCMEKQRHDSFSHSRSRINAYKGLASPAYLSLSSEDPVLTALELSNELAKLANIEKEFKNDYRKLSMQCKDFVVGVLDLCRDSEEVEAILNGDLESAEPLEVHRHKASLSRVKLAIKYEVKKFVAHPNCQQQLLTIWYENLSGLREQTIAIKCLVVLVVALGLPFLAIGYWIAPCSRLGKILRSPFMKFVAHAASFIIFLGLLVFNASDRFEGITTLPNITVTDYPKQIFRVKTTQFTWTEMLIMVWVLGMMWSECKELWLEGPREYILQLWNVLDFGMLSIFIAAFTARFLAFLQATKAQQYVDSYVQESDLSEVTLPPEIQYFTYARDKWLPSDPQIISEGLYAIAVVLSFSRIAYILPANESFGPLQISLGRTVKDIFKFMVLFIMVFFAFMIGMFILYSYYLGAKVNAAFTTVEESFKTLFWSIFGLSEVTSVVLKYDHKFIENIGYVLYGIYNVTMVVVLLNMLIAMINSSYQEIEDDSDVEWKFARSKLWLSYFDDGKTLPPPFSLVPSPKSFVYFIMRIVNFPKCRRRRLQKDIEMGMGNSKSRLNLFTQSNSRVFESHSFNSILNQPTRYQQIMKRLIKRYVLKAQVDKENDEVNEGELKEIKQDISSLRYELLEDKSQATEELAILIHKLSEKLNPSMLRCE
Method: as §3

hTRPC7 = target: T3, hTRPC7 (Homo sapiens, UniProt Q9HCX4); assay: as above; assay type: cell-based; details: 0.3-300μM; effects over the micromolar range
T3 sequence (Q9HCX4 1-862): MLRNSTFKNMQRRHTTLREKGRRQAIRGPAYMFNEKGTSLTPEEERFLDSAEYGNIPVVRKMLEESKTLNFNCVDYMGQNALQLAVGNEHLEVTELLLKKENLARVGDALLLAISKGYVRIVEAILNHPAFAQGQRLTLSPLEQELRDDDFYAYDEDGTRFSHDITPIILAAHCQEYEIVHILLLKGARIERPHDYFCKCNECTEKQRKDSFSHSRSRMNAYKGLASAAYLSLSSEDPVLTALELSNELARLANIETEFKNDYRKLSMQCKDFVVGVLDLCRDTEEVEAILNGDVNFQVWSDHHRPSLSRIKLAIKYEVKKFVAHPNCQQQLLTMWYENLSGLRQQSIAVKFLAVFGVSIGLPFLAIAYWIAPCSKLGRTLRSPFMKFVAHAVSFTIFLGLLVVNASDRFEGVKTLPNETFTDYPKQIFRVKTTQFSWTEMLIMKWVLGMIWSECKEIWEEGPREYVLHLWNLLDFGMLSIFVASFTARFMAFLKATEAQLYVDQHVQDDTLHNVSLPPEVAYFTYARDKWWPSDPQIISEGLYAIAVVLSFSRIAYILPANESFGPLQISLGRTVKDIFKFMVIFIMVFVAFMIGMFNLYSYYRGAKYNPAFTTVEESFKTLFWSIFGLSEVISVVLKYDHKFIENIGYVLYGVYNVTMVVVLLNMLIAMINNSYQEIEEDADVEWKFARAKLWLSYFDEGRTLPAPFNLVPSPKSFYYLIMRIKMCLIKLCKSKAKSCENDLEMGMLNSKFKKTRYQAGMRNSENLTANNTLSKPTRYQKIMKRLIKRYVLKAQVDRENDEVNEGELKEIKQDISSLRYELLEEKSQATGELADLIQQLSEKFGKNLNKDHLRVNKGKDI
Method: as §3

hTRPM8 = hTRPM8 (Homo sapiens, UniProt Q7Z2W7); assay: Single cell confocal Ca2+ imaging (fluo-4) in transfected HEK293 cells; assay type: cell-based; set-up: host or cells: HEK293 (ATCC CRL-1573.3), transient; details: for cytoplasmic Ca2+ signal in TRPM8 expressing cells: menthol 300μM, ±PZQ 100μM, (R)-PZQ or (S)-PZQ 50μM
Source text: as §1, §2

T1 sequence (O75762 whole entry, the tested form may be a part): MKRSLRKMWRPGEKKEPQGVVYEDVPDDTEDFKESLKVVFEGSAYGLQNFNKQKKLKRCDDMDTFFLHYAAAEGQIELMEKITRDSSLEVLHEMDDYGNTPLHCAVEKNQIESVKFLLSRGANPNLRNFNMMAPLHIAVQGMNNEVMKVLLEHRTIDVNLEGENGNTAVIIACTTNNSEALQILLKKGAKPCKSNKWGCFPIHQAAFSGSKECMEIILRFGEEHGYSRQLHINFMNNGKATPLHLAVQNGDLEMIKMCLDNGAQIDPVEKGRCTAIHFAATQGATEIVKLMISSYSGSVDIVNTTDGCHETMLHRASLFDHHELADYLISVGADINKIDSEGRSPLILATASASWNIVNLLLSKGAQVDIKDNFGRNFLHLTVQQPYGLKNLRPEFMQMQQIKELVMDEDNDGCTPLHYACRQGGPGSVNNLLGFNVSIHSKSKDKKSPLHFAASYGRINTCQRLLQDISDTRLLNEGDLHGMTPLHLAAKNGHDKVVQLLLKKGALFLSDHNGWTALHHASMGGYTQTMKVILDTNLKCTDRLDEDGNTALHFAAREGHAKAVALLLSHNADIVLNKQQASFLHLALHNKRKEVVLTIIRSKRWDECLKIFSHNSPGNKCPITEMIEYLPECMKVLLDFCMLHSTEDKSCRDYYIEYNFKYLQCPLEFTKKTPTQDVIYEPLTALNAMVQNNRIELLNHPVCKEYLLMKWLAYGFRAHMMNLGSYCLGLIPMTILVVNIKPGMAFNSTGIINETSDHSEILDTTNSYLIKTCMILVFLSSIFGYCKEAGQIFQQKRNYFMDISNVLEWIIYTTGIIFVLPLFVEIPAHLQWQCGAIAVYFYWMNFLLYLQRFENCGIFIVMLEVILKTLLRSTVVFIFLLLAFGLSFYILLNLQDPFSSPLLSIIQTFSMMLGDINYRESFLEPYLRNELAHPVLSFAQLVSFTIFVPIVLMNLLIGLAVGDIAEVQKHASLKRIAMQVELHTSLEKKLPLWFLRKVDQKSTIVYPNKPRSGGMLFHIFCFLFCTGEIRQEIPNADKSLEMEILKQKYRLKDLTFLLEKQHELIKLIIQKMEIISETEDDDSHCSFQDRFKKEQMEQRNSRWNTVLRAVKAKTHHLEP
Chain of hTRPM8 (Q7Z2W7 whole entry): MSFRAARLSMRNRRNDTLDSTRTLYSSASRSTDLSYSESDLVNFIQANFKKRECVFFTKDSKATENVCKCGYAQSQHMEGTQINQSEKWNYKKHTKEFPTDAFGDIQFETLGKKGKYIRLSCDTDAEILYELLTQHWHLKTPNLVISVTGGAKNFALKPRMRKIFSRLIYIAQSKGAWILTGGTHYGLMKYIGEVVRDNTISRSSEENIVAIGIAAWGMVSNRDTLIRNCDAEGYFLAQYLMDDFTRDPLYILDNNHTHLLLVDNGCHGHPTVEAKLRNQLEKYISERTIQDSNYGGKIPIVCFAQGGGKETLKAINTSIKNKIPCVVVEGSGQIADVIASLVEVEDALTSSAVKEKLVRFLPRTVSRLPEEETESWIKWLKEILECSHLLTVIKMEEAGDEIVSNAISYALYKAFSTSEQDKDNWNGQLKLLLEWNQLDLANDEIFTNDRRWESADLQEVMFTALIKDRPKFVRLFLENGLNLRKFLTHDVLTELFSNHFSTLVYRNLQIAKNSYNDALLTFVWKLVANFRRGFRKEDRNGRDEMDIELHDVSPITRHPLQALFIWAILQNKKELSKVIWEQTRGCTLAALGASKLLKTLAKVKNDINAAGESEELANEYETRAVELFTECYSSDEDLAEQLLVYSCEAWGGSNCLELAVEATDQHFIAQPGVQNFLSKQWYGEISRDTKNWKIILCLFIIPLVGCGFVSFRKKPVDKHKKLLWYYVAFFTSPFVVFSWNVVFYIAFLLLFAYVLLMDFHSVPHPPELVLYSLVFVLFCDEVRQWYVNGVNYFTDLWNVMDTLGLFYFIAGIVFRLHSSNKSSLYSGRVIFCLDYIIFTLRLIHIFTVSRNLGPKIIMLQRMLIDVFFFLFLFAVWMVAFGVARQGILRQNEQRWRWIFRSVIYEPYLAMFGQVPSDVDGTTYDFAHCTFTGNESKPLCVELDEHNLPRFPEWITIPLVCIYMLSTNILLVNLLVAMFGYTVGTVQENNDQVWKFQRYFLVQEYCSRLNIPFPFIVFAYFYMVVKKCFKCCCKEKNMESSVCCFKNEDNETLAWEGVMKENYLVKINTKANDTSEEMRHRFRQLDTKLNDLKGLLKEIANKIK
Chain of TRPV1 (Q8NER1 whole entry): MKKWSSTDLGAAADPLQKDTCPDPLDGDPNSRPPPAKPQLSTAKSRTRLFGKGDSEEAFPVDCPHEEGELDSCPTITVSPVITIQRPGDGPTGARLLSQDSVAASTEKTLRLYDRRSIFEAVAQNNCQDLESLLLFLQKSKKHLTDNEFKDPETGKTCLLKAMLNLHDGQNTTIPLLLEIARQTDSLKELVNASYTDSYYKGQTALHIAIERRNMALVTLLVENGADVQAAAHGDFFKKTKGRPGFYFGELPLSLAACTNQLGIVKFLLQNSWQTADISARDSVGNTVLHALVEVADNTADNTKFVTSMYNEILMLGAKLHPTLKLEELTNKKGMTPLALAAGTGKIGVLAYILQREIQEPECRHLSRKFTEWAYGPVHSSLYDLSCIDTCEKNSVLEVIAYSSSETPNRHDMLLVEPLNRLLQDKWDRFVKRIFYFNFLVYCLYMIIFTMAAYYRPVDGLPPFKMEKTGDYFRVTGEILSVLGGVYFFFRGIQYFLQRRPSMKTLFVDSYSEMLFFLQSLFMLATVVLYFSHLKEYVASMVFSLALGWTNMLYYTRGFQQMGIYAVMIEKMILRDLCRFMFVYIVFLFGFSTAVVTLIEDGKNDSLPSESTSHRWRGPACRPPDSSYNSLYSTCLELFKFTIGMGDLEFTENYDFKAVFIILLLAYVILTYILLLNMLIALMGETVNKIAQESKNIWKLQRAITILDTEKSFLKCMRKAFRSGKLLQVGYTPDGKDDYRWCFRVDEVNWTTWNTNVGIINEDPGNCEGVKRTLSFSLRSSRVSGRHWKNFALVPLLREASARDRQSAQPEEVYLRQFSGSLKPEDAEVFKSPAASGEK

block of AITC-evoked Ca2+ elevation (hTRPA1 [1]; preincubation, 1μM): blocked | block of ±PZQ-evoked Ca2+ responses (hTRPA1 [1]; preincubation, 1μM): blocked
Compound: Cn1cnc2ncn(Cc3nc(CCc4ccc(Cl)cc4)no3)c(=O)c21 [AM-0902]

Compound: COc1ccc(NC(=O)[C@@H]2C[C@H](C)CC[C@H]2C(C)C)cc1 [WS-12]
relaxation of KPSS-contracted vessel strips by TRPM8 agonists [2]: completely relaxed | vasorelaxant effect in TRPM8 KO background [3]: persisted

Compound: CC(=O)OCC[N+](C)(C)C [ACh, acetylcholine]
Ca2+ response in untransfected HEK293 cells [4]: caused Ca^2+ transients

Ca2+ signal in TRPV1 expressing cells (TRPV1; capsaicin 1μM, ±PZQ 100μM): evoked Ca^2+ signals
Compound: COc1cc(CNC(=O)CCCC/C=C/C(C)C)ccc1O [capsaicin]
Ca2+ response in untransfected HEK293 cells [4]: neither the addition of the TRPV1 agonist capsaicin (1μM) nor addition of ±PZQ evoked a Ca^2+ response

activity at hTRPA1 in primary screen (hTRPA1 [5]): activated | activity at hTRPC3 in primary screen (hTRPC3): activated | activity at hTRPC7 in primary screen (hTRPC7): activated | Ca2+ response in hTRPA1 expressing cells (hTRPA1 [1]): activation of hTRPA1 | cytoplasmic Ca2+ signal in TRPM8 expressing cells (hTRPM8): without effect
Compound: O=C(C1CCCCC1)N1CC(=O)N2CCc3ccccc3[C@@H]2C1 [(R)-PZQ]
change in tension of KPSS-precontracted vessels ([2]; 50μM, bath application during KPSS-evoked contraction): initial, small contraction

Compound: CC1CCC(C(C)C)C(O)C1 (stereo not drawn) [menthol]
relaxation of KPSS-contracted vessel strips by TRPM8 agonists [2]: completely relaxed | vasorelaxant effect in TRPM8 KO background [3]: persisted | Ca2+ response in untransfected HEK293 cells [4]: neither ±PZQ or menthol elevated cytoplasmic Ca^2+ levels | menthol-evoked Ca2+ signals in Ca2+-free media (hTRPM8; 300μM, Ca2+-free media): not observed | cytoplasmic Ca2+ signal in TRPM8 expressing cells (hTRPM8): rapidly elevated cytoplasmic Ca^2+

Compound: C=CCN=C=S [AITC, allyl isothiocyanate]
Ca2+ response in untransfected HEK293 cells [4]: without effect | Ca2+ response in hTRPA1 expressing cells (hTRPA1 [1]): elevation of cytoplasmic Ca^2+

Compound: Cc1cccc(COc2ccccc2C(=O)N(CCCN)Cc2cccs2)c1 [AMTB]
block of Ca2+ transients evoked by (S)-PZQ or menthol (hTRPM8; AMTB 10μM added 30min before agonists): blocked

block of capsaicin-evoked Ca2+ signals (TRPV1; capsazepine 10μM): blocked
Compound: Oc1cc2c(cc1O)CN(C(=S)NCCc1ccc(Cl)cc1)CCC2 [capsazepine]

Compound: O=C1NC(c2cccc([N+](=O)[O-])c2)=CCN1c1ccccc1O [icilin]
relaxation of KPSS-contracted vessel strips by TRPM8 agonists [2]: completely relaxed | vasorelaxant effect in TRPM8 KO background [3]: persisted
